How the values were obtained:
Format in all cases: cell-based
[1] = test system: Panc-1 and Paca2 cells; test: MTT relative cytotoxicity toward pancreatic cancer lines (statements on both lines together); conditions: 72 hours; for cytotoxicity toward pancreatic cancer lines: 12.5, 25 and 50 μM
Experimental: (§1) FIG. 7: Relative cytotoxicity of the AOH compounds docking with caPCNA toward cultured Panc-1 (A) and Paca2 (B) cells. Relative cytotoxicity was determined by a colorimetric assay (MTT) measuring cell viability following a 72 hour incubation with the compounds indicated. Cells were exposed to DMSO/saline (series 1) and 12.5 (series 2) 25 (series 3) and 50 (series 4) μM of the indicated drug dissolved in DMSO for 72 hours prior to performing the MTT assay.

[2] = test system: MCF-7 cells; conditions: for selectivity of toxicity, breast cancer versus non-malignant breast cells: at concentrations lower than 100 μM (10 μM), MCF7 vs MCF-10A
Experimental: The effect that a set of in silico selected compounds had on the viability of exponentially growing cultured malignant (MCF-7) and non-malignant (MCF-10A) breast cells was determined. Exponentially growing malignant (MCF-7) and non-malignant (MCF-10A) breast cells were incubated for 72 hours with 100 μM of the indicated compounds in growth media, before cell viability was determined colorimetrically using the MTT assay. […] Relative viability was determined by comparison to the viability of the cell cultures incubated in the presence of PBS/DMSO (vehicle) control instead of compound. […] Also were identified compounds that killed: both cell types with nearly equal preference; compounds that had little or no cytotoxic effect on either cell type, and compounds that preferentially killed the non-malignant breast cells.
The short- and long-term cytotoxic effects of each of the AOH compounds was determined essentially as described below for the caPeptide and related peptides, except that the initial cell based screening was determined by incubating cells for 72 hours with 100 μM of each compound. Compounds were classified into specific categories: 1) compounds that preferentially kill breast cancer but not non-malignant breast cells; 2) compounds that appear to kill both malignant and non-malignant breast cells without preference; 3) compounds that appear to have little or no toxicity toward either type of breast cell; and 4) compounds that appear to preferentially kill non-malignant breast cells. For those compounds falling into the first category, the short-term MTT viability assay was repeated using 10 μM of the selected AOH compound.
The MTT ((3-(4,5-Dimethylthiazol-2-yl)-2,5-diphenyltetrazolium bromide) assay was performed to determine the viability of cells exposed for various lengths of time to various peptide constructs containing or related to caPeptide. This assay determines the short-term affect each of the peptides has on cell viability. caPeptide's sequence is LGIPEQEY. The MTT assay was used to monitor the cytotoxic effect various caPeptides had on the viability of human MCF-7, MDA-MB436, HCC1937^(BRCA−) and HCC1937^(BRCA+) breast cancer cells. HCC1937^(BRCA−) cells harbor a hereditary mutation in the BRCA1 gene, that results in a non-functional gene product. These cells, are the parental wild-type to the HCC1937^+ cells, which express a fully functional BRCA1 human transgene. The assay was performed by seeding equal numbers of cells (5×10^3) into each of the wells of 96-well tissue culture plates for an overnight incubation to allow the cells to attach to the plates. In the morning, the cells in each of 3 individual wells were exposed to each of the various peptide constructs at the various concentrations indicated in the figures, for periods of 24, 48 and 72 hours. The MTT assay was then performed on the cells in each of the wells to determine the relative degree to which specific peptides were cytotoxic to each of these breast cancer cell lines. Percent viability at the end of the assay we determined colorimetrically by measuring the absorbance at 405 nm of the assay products formed in each well, averaging them, and then comparing the average absorbance of these assay products formed at each individual time period for each specific concentration of a specific peptide examined to the average absorbance of the 3 wells used to determine the viability of untreated cells exposed to PBS in place of peptide. These wells containing the PBS treated cells were assigned a relative viability of 100%, based upon the average absorbance of the reaction product formed in these wells, and the viability of the cells exposed to the various peptides under specific assay conditions was determined as a percentage of the absorbance produced by these PBS treated cells.

[3] = test system: Panc-1 cells
Experimental: as §1
(§2) FIG. 8: 50 μM AOH-18, AOH-20, and AOH-39 were individually incubated with exponentially growing Panc-1 or Paca-2 cells for 72 hours, after which cell viability was determined colorimetrically using MTT.

[4] = test system: Paca-2 cells; test: MTT cell viability assay, Paca-2 cells, 72 hours
Experimental: as §1, §2

Row | SMILES | cytotoxicity toward pancreatic cancer lines [1] | CC50 [2] [µM] | further results
1 | CCNC(C)c1nc2ccccc2c(=O)n1Cc1ccccc1 (stereo not shown) [AOH-1] | concentration dependent cytotoxicity |  | 
2 | Cc1ccc(-n2c(C(C)N3CCNC(C)C3)nc3ccccc3c2=O)cc1 (stereo not shown) [AOH-16] | concentration dependent cytotoxicity |  | 
3 | CCn1c2ccccc2c2cc(CNCc3ccccc3)ccc21 [AOH-18] |  |  | relative sensitivity of MCF-7 cells among compounds ([2]; 72 hours, MTT, rank by LC50): most sensitive; selectivity of toxicity, breast cancer versus non-malignant breast cells [2]: selectively toxic; LC50 [3]: not achieved over the concentration range tested; LC50 [4]: not achieved over the concentration range tested; loss in viability of both pancreatic cell lines ([1]; at the MCF-7 LC50 concentration (~3 μM)): little or no loss in viability
4 | CC(C)(C)c1ccc(CNC2CCN(Cc3ccccc3)CC2)cc1 [AOH-20] |  | 3 to 40 | selectivity of toxicity, breast cancer versus non-malignant breast cells [2]: selectively toxic; LC50 [3]: not achieved over the concentration range tested; LC50 [4]: not achieved over the concentration range tested
5 | CCCCNC(=O)c1cc2occc2n1Cc1cc(C)ccc1C [AOH-34] | concentration dependent cytotoxicity |  | 
6 | CCCCNC(=O)c1cc2oc(C)cc2n1Cc1cc(C)ccc1C [AOH-36] |  | 3 to 40 | 
7 | Cc1nc(C)c(Cc2ccccc2F)c(N2CCN(CC(O)C(C)C)CC2)n1 (stereo not shown) [AOH-52] | concentration dependent cytotoxicity |  | 
8 | CCN(C(=O)Nc1cccc(C(F)(F)F)c1)C(C)c1nc2ccccc2c(=O)n1-c1ccc(F)cc1 (stereo not shown) [AOH-59] | concentration dependent cytotoxicity | 3 to 40 | 
